Here are results for four molecules from patent publication US12227516B1, “Selective COX-2 inhibition of 2-(substituted benzyl)-3,5,6,7-tetrahydro-4H-cyclopenta[4,5]thieno[2,3-d]pyrimidin-4-ones and 4-fluoro-n-(4-oxo-3,5,6,7-tetrahydro-4H-cyclopenta[4,5]thieno[2,3-d]pyrimidin-2-yl)benzamide as anti-inflammatory agents” (KING FAISAL UNIVERSITY, priority 2023, dated 2025).

For one test, the target named is T1, human recombinant COX-2 (Homo sapiens, UniProt P35354).
T1 sequence (P35354 18-604): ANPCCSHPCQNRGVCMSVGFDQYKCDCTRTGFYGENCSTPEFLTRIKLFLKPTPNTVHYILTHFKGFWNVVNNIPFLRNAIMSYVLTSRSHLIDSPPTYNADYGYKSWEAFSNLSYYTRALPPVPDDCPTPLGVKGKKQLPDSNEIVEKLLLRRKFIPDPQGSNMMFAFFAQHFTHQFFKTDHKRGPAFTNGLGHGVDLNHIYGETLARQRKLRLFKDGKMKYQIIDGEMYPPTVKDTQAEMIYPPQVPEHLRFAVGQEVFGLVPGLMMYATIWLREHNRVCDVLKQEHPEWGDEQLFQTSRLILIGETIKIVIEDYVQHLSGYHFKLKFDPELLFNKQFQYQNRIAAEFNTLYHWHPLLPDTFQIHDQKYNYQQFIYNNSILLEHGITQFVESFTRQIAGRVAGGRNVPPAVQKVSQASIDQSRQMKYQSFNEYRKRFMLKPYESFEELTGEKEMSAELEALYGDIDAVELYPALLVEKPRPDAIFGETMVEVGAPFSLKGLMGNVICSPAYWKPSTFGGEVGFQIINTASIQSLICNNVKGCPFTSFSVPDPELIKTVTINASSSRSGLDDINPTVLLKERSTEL
Description: COX (ovine) Inhibitor Screening Assay, COX-2. To be noted: for IC50: human recombinant COX-2, PGF2α by EIA, 18 hours of incubation; for selectivity of inhibition, COX-2 versus COX-1, in words: ovine COX-1 versus human recombinant COX-2. Type of test: biochemical. As for the experimental part:
(§1) The COX (ovine) Inhibitor Screening Assay was performed mainly to determine the selective inhibition of tested compounds (6, 7, 8 and 9) towards the ovine COX-1 and human recombinant COX-2 isoenzymes. Adding arachidonic acid (AA) helped convert the COX component into PGG2, followed by a reduction of PGG2 into PGH2. The following addition of SnCl2 converted PGH2 into PGF2α. The assay directly measures the PGF2α via enzyme immunoassay (EIA) using a broadly specific antiserum that is bound to all PG tracers. Depending on the tested compounds inhibitory effect, the concentration of PGF2α in each well varied and was inversely proportional to the amount of PG tracers that were able to bind to the antiserum. PG tracers-antiserum complex was left to bind to the mouse monoclonal anti-rabbit antibody that had been coated to the well during the 18 hours of incubation. Ellman's reagent was added to give distinct yellow coloration to the products from this enzymatic reaction, which absorbed strongly at 412 nm. The intensity of the color was proportional to the amount of PG tracers-antiserum complex bound to the well, which was inversely proportional to the concentration of PGF2α present.
(§2) The inhibitory activity of tested compounds was determined based on IC50 values, whereas the selectivity was based on their selectivity indices (SI), which are defined as COX-1 IC50/COX-2 IC50. In the assay system, indomethacin was used as a non-selective COX inhibitor standard, while NS-398 was used as a COX-2 selective inhibitor standard.

In another test the target is T2, ovine COX-1 (Ovis aries, UniProt P05979).
T2 sequence (P05979 25-600): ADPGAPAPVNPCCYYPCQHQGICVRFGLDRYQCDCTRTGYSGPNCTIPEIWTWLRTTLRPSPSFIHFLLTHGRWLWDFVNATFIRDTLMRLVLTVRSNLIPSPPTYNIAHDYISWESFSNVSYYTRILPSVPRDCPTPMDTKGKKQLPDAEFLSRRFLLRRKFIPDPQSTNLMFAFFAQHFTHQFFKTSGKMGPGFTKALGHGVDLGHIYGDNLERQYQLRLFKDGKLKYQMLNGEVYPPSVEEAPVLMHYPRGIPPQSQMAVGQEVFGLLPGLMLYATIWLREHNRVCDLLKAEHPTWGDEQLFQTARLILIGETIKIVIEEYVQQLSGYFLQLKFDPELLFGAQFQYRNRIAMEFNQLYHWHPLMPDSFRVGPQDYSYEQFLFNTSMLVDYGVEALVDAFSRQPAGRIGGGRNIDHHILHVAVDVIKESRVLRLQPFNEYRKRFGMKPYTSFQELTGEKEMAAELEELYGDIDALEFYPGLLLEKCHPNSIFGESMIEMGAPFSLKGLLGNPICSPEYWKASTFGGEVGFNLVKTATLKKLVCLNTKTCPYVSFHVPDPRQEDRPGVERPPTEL
Description: COX (ovine) Inhibitor Screening Assay, COX-1. Type of test: biochemical. The note with it: PGF2α by EIA, 18 hours of incubation. On the procedure: as §1, §2

As to `O=c1[nH]c(Cc2ccc(F)cc2)nc2sc3c(c12)CCC3` [Compound 6, 2-(4-Fluorobenzyl)-3,5,6,7-tetrahydro-4H-cyclopenta[4,5]thieno[2,3-d]pyrimidin-4-one], at human recombinant COX-2, the “SI (selectivity index, COX-1 IC50/COX-2 IC50)” value was determined as 0.68; the IC50 (commonly the concentration at which inhibition is half-maximal) stood at 56.4 µM; the “selectivity of inhibition, COX-2 versus COX-1, in words” value is reported as “mild selective inhibition against COX-2”. On ovine COX-1, this molecule returned an IC50 of 38.5 µM.
In the same order, the values of `COc1ccc(-c2nc3sc4c(c3c(=O)[nH]2)CCC4)cc1` [Compound 8, 2-(4-Methoxyphenyl)-3,5,6,7-tetrahydro-4H-cyclopenta[4,5]thieno[2,3-d]pyrimidin-4-one] are 11.41, 7.3 µM, “mild selective inhibition against COX-2” and 83.8 µM.
The corresponding values for `O=C(Nc1nc2sc3c(c2c(=O)[nH]1)CCC3)c1ccc(F)cc1` [Compound 9, 4-Fluoro-N-(4-oxo-3,5,6,7-tetrahydro-4H-cyclopenta[4,5]thieno[2,3-d]pyrimidin-2-yl)benzamide] are 1.26, 54.9 µM, “mild selective inhibition against COX-2” and 69.2 µM.
The corresponding values for `COc1ccc(Cc2nc3sc4c(c3c(=O)[nH]2)CCC4)cc1` [Compound 7, 2-(4-Methoxybenzyl)-3,5,6,7-tetrahydro-4H-cyclopenta[4,5]thieno[2,3-d]pyrimidin-4-one] are 6.98, 32.1 µM, “mild selective inhibition against COX-2” and 224 µM.
